# Data published in patent US20120252721A1 (priority 2011, published 2012).
# Columns and labels:
# [1] = test system: 1a-luc WT (HCV genotype 1a replicon); assay: Luciferase replicon transient transfection assay, 1a-luc WT; type: cell-based; details: Hepatitis C virus, 96 h, Huh7.5 cells, 4 days
# Description: (§1) The luciferase replicon transient transfection assay measures the ability of a test compound to inhibit the replication of a transiently-transfected HCV luciferase-bearing wild-type or mutant replicon in cured human hepatoma cells (Huh7.5). The inhibition of HCV replication was measured by quantification of luciferase protein expression. This assay has been validated using a panel of genotype 1a and 1b replicons bearing mutations known to be associated with resistance to BMS-790052. Briefly, subconfluent Huh7.5 cells were electroporated with 10 μg of wild-type or mutant luciferase-bearing HCV replicon RNA. The cells were then seeded in 96-well opaque white plates at 3×10^4 cells/well in 150 μL/well and incubated for 4 hrs at 37° C./5% CO2. Ten 1:5 serial dilutions of each test compound were made in media (DMEM containing glucose, L-glutamine and sodium pyruvate, 10% fetal bovine serum, 100 IU/mL penicillin, 100 μg/mL streptomycin, 2 mM GlutaMAX, and 1×MEM non-essential amino acids (Mediatech, Inc. and Invitrogen Corp.)) at concentrations that were 4× higher than the final concentrations to be tested and 50 μL/well was added to the transfected cells. Untreated, mock-transfected cells served as a negative control of luciferase expression. The plates were incubated at 37° C./5% CO2 for 4 days whereupon the media was removed and 50 μL of ONE-glo luciferase substrate (Promega) was added to each well. The plates were agitated on a rotating platform at room temperature for 3 min and read in a Victor^3V microplate reader (Perkin-Elmer) using a 700 nm cut-off filter with a 1 sec read time. EC50 values were calculated from dose response curves from the resulting best-fit equations determined by Microsoft Excel and XLfit 4.1 software.
# [2] = test system: ZS11-luc WT (HCV genotype 1b replicon); assay: Luciferase replicon transient transfection assay, ZS11-luc WT; type: cell-based, hepatitis C virus; details: Hepatitis C virus, Huh7.5, 96 h, genotype 1b, ZS11-luc WT, Huh7.5 cells, 4 days
# Description: as §1
# [3] = test system: 1a-luc L31V (HCV genotype 1a replicon); assay: Luciferase replicon transient transfection assay, 1a-luc L31V; type: cell-based, hepatitis C virus; details: for EC50: Hepatitis C virus, 96 h, Huh7.5 cells, 4 days
# Description: as §1
# [4] = test system: ZS11-luc Y93H (HCV genotype 1b replicon); assay: Luciferase replicon transient transfection assay, ZS11-luc Y93H; type: cell-based, hepatitis C virus; details: for EC50: Hepatitis C virus, 96 h, Huh7.5 cells, 4 days
# Description: as §1
# [5] = test system: ZS11-luc L31V (HCV genotype 1b replicon); assay: Luciferase replicon transient transfection assay, ZS11-luc L31V; type: cell-based, hepatitis C virus; details: for EC50: Hepatitis C virus, 96 h, Huh7.5 cells, 4 days
# Description: as §1
# [6] = test system: 1a-luc Q30E (HCV genotype 1a replicon); assay: Luciferase replicon transient transfection assay, 1a-luc Q30E; type: cell-based, hepatitis C virus; details: for EC50: Hepatitis C virus, 96 h, Huh7.5 cells, 4 days
# Description: as §1
# [7] = test system: 1a-luc Y93H (HCV genotype 1a replicon); assay: Luciferase replicon transient transfection assay, 1a-luc Y93H; type: cell-based, hepatitis C virus; details: for EC50: Hepatitis C virus, 96 h, Huh7.5 cells, 4 days
# Description: as §1
# [8] = test system: ZS11-luc L31M (HCV genotype 1b replicon); assay: Luciferase replicon transient transfection assay, ZS11-luc L31M; type: cell-based, hepatitis C virus
# Description: as §1
# [9] = test system: HCV genotype 1a replicon, NS3 T260A; assay: Luciferase replicon transient transfection assay, genotype 1a NS3 T260A; type: cell-based, hepatitis C virus
# Description: as §1
# (§2) To determine the replication capacity of each mutant relative to the wild-type parental replicon, transfected cells were plated on two plates and were not treated with compound. Luciferase activity was measured at time points of 4 hrs and 4 days after plating for each replicon. Replication capacity was calculated by dividing the day 4 CPS by the 4 hour CPS for each replicon and determining the percentage present for each mutant replicon relative to wild-type replicon values. The NS3, NS4B, and NS5B mutants were prepared and tested according to the methods described herein.
# [10] = test system: ZS11-luc Y93N (HCV genotype 1b replicon); assay: Luciferase replicon transient transfection assay, ZS11-luc Y93N; type: cell-based, hepatitis C virus
# Description: as §1
# [11] = test system: ZS11-luc P32L (HCV genotype 1b replicon); assay: Luciferase replicon transient transfection assay, ZS11-luc P32L; type: cell-based, hepatitis C virus
# Description: as §1
# [12] = test system: 1a-luc L31F (HCV genotype 1a replicon); assay: Luciferase replicon transient transfection assay, 1a-luc L31F; type: cell-based, hepatitis C virus
# Description: as §1
# [13] = test system: ZS11-luc R30E (HCV genotype 1b replicon); assay: Luciferase replicon transient transfection assay, ZS11-luc R30E; type: cell-based, hepatitis C virus
# Description: as §1
# [14] = test system: 1a-luc M28T (HCV genotype 1a replicon); assay: Luciferase replicon transient transfection assay, 1a-luc M28T; type: cell-based, hepatitis C virus
# Description: as §1
# [15] = test system: ZS11-luc L31F (HCV genotype 1b replicon); assay: Luciferase replicon transient transfection assay, ZS11-luc L31F; type: cell-based, hepatitis C virus
# Description: as §1
# [16] = test system: 1a-luc P32L (HCV genotype 1a replicon); assay: Luciferase replicon transient transfection assay, 1a-luc P32L; type: cell-based, hepatitis C virus
# Description: as §1
# [17] = test system: 1a-luc Q30H (HCV genotype 1a replicon); assay: Luciferase replicon transient transfection assay, 1a-luc Q30H; type: cell-based, hepatitis C virus
# Description: as §1
# [18] = test system: HCV genotype 1a replicon, NS5A E295G; assay: Luciferase replicon transient transfection assay, genotype 1a NS5A E295G; type: cell-based, hepatitis C virus
# Description: as §1
# [19] = test system: HCV genotype 1a replicon, NS5A K24E; assay: Luciferase replicon transient transfection assay, genotype 1a NS5A K24E; type: cell-based, hepatitis C virus
# Description: as §1
# [20] = test system: ZS11-luc Y93C (HCV genotype 1b replicon); assay: Luciferase replicon transient transfection assay, ZS11-luc Y93C; type: cell-based, hepatitis C virus
# Description: as §1
# [21] = test system: 1a-luc Q30R (HCV genotype 1a replicon); assay: Luciferase replicon transient transfection assay, 1a-luc Q30R; type: cell-based, hepatitis C virus
# Description: as §1
# [22] = test system: ZS11-luc L28T (HCV genotype 1b replicon); assay: Luciferase replicon transient transfection assay, ZS11-luc L28T; type: cell-based, hepatitis C virus
# Description: as §1
# [23] = test system: 1a-luc Y93N (HCV genotype 1a replicon); assay: Luciferase replicon transient transfection assay, 1a-luc Y93N; type: cell-based, hepatitis C virus
# Description: as §1
# [24] = test system: HCV genotype 1a replicon, NS4B E15G; assay: Luciferase replicon transient transfection assay, genotype 1a NS4B E15G; type: cell-based, hepatitis C virus
# Description: as §1, §2
# [25] = test system: 1a-luc L31M (HCV genotype 1a replicon); assay: Luciferase replicon transient transfection assay, 1a-luc L31M; type: cell-based, hepatitis C virus
# Description: as §1
# [26] = test system: 1a-luc Y93C (HCV genotype 1a replicon); assay: Luciferase replicon transient transfection assay, 1a-luc Y93C; type: cell-based, hepatitis C virus
# Description: as §1
# [27] = test system: 1a-luc Q30K (HCV genotype 1a replicon); assay: Luciferase replicon transient transfection assay, 1a-luc Q30K; type: cell-based, hepatitis C virus
# Description: as §1
# [28] = Hepatitis C virus, 96 h, Huh7.5 cells, 4 days
smiles,measurement,setting,value
COC(=O)N[C@H](C(=O)N1CCC[C@H]1c1ncc(-c2ccc(-c3cc4sc(-c5ccc(-c6c[nH]c(C7CCCN7C(=O)[C@H](NC(=O)OC)c7ccccc7)n6)cc5)cc4s3)cc2)[nH]1)C(C)C (stereo partly shown) [Compound A192],EC50,[1],0.02 nM
same,EC50,[2],0.003 nM
same,Ratio,[3],678
same,EC50,[3],11 nM
same,Ratio,[4],138
same,EC50,[4],0.4 nM
same,Ratio,[5],20
same,EC50,[5],0.05 nM
same,Ratio,[6],597
same,EC50,[6],9 nM
same,Ratio,[7],5072
same,EC50,[7],79 nM
"COC(=O)N[C@H](C(=O)N1CCC[C@H]1c1nc(-c2ccc(-c3ccc(-c4c[nH]c([C@@H]5CCCN5C(=O)[C@@H](NC(=O)OC)C(C)C)n4)cc3)cc2)c[nH]1)C(C)C [BMS-790052, reference compound]",Ratio,[8],3
same,EC50,[8]; [28],0.06 nM
same,EC50,"[9]; Hepatitis C virus, genotype 1a, HCV region NS3, mutation T260A",0.031 nM
same,Ratio,[9]; {},1.74
same,Ratio,[10],33
same,EC50,[10]; [28],0.7 nM
same,Ratio,[11],9
same,EC50,[11]; [28],0.2 nM
same,EC50,[1],0.026 nM
same,Ratio,[12],43
same,EC50,[12]; [28],1 nM
same,Ratio,[13],7
same,EC50,[13]; [28],0.1 nM
same,EC50,[2],0.02 nM
same,Ratio,[3],899
same,EC50,[3],23 nM
same,Ratio,[14],165
same,EC50,[14]; [28],4 nM
same,Ratio,[15],7
same,EC50,[15]; [28],0.1 nM
same,Ratio,[16],142
same,EC50,[16]; [28],4 nM
same,Ratio,[17],155
same,EC50,[17]; [28],4 nM
same,EC50,"[18]; Hepatitis C virus, genotype 1a, HCV region NS5A, mutation E295G",0.028 nM
same,Ratio,[18]; {},1.56
same,EC50,"[19]; Hepatitis C virus, genotype 1a, HCV region NS5A, mutation K24E",0.032 nM
same,Ratio,[19]; {},1.78
same,Ratio,[20],2
same,EC50,[20]; [28],0.04 nM
same,Ratio,[4],19
same,EC50,[4],0.4 nM
same,Ratio,[21],95
same,EC50,[21]; [28],2 nM
same,Ratio,[22],25
same,EC50,[22]; [28],0.5 nM
same,Ratio,[5],23
same,EC50,[5],0.4 nM
same,Ratio,[23],7842
same,EC50,[23]; [28],192 nM
same,Ratio,[6],2935
same,EC50,[6],74 nM
same,Ratio,[7],1392
same,EC50,[7],35 nM
same,EC50,"[24]; Hepatitis C virus, HCV region NS4B, mutation E15G",0.029 nM
same,Ratio,[24]; NS4B E15G,1.62
same,Ratio,[25],115
same,EC50,[25]; [28],3 nM
same,Ratio,[26],287
same,EC50,[26]; [28],7 nM
same,Ratio,[27],752
same,EC50,[27]; [28],19 nM
COC(=O)N[C@H](C(=O)N1CCCC1c1ncc(-c2csc3c(-c4ccc(-c5cnc(C6CCCN6C(=O)C(c6ccccc6)N6CCCCC6)[nH]5)cc4)csc23)[nH]1)C(C)C (stereo partly shown) [Compound A219],EC50,[1],0.04 nM
same,EC50,[2],0.01 nM
same,Ratio,[3],442
same,EC50,[3],18 nM
same,Ratio,[4],49
same,EC50,[4],0.6 nM
same,Ratio,[5],4
same,EC50,[5],0.05 nM
same,Ratio,[6],25
same,EC50,[6],1 nM
same,Ratio,[7],4841
same,EC50,[7],210 nM
